According to US20090075313A1, “Split protein fragments, split protein systems, methods of making split protein systems, and methods of using split protein systems” (Stanford University, priority 2007, published 2009):
Where two headings read alike, the source gives them in different places.

How the values were obtained:
[1] = tested on: cells; settings: 40 nM of rapamycin per well; cited from earlier work
[2] = tested on: human estrogen receptor ligand-binding domain (hER-LBD); experiment: intramolecular protein folding sensor (split TK fragments flanking ER-LBD), TK enzyme uptake in 293T cells; type: cell-based
Procedure: FIG. 2b illustrates a schematic diagram of the intramolecular folding sensor construct with the split TK fragments on either side of the estrogen receptor ligand binding domain (ER-LBD), and each construct was made by cloning into a pcDNA3.1 (+) plasmid backbone, under control of a CMV promoter. […] The error bar is the standard error of the mean for three samples.
All experiments were conducted with comparison to a positive control derived from the activity of intact TK, and a mock transfection acting as a negative control.

[3] = tested on: 293T cells stably expressing nTK(V119C)-FRB plus FKBP12-cTK; experiment: microPET imaging with [18F]-FHBG of subcutaneous 293T xenografts in living mice; type: in vivo
From the text: The signal from each implant was quantified directly from the microPET images to determine the % ID/g for the FHBG probe. […] The animals were repeatedly imaged on day 1 (before rapamycin), day 2 (one dose post rapamycin) and day 5 (3 doses post rapamycin) of this imaging protocol, i.e. after 1 week of initial xenograft growth. […] In another group of 4 mice, xenografts expressing nTK(V119C)-FRB plus FKBP12-cTK were compared with control implants stably expressing nTK plus cTK only (also in a single vector).
All animal handling and care was performed in accordance with Stanford University Animal Research Committee guidelines. […] The cells were allowed to grow as tumors for 7 days (to ˜0.3-0.4 cm in diameter). On day 8 mice were tail vein injected with 200 μCi of [^18F]-FHBG after undergoing anesthesia with 2% isoflurane in oxygen at 2 L/min. Three hours later, mice were microPET imaged in a spread prone position in a FOCUS microPET scanner (Concorde Microsystems, Knoxville, Tenn.). […] Immediately after imaging the animals were intraperitoneally injected with 50 μg of rapamycin; 24 h later all the animals were re-subjected to microPET imaging as mentioned above. The animals were further injected with intraperitoneal 50 μg rapamycin for two more days at 24 h intervals and subjected to repeat microPET imaging. In a separate cohort of 4 control mice, the above temporal imaging studies were performed in an identical fashion except that no rapamycin was administered. […] This % ID/g is a measure of the amount of tracer accumulated in a given tissue site normalized to the injected amount and to the mass of the tissue examined. […] For statistical analysis, the 2-tailed Student t-test was used. Differences were considered significant at P<0.05.

[4] = target: FKBP12 (Homo sapiens, UniProt P62942); settings: stable 293T cells, with 40 nM rapamycin, 36 h
[5] = target: FM (F36M) mutant FKBP12 (Homo sapiens, UniProt P62942, F37M)
From the text: (§1) Twenty-four hours later we added FK506 to these cells and, using an in vitro [8-^3H]Penciclovir cell uptake assay, measured either the time- or dose-dependent changes in homodimer dissociation and consequent diminished TK complementation.
as §1

[6] = target: HSV1-sr39TK (Human herpesvirus 1, UniProt Q9QNF7, A168F/F161L/I160F/L159I/L169M); experiment: self-complementation of split TK fragments without attached proteins, TK enzyme uptake in 293T cells; type: cell-based, herpes simplex virus type 1
From the text: To confirm or refute this finding we performed a separate PCA study using another pair of known interacting proteins, after replacing FRB and FKBP12 with Id and MyoD respectively (FIG. 2a, and FIG. 12). […] We tested the interaction of Id and MyoD upon transient co-expression of the fusion proteins nTK-Id and MyoD-cTK in 293T cells, followed by an in vitro TK enzyme cellular uptake assay to detect dimerization-assisted complementation of the TK fragments. Again, this same orientation of chimeras using Id and MyoD was used previously in PCAs with split Firefly luciferase and Renilla luciferase. We compared this with complementation obtained using the previous chimeras containing FRB and FKBP12, before and after addition of rapamycin. As negative controls we also assayed for TK activity upon single- and co-expression of nTK and cTK fragments without any attached proteins to check whether any measured TK activity might originate in either the N-terminal or C-terminal fragments of TK alone, or perhaps by their spontaneous self-complementation even without attached proteins. The results, shown in FIG. 12, confirmed the findings described above using the FRB/FKBP12/rapamycin system (FIGS. 9, 10, 12).

[7] = target: FKBP12-cTK (human; herpes simplex virus type 1, UniProt P62942 1-108); experiment: cell-based or functional assay
[8] = 293T cells, 24 h treatment, P<0.05

Chain of FKBP12 (P62942 whole entry, added parts left off): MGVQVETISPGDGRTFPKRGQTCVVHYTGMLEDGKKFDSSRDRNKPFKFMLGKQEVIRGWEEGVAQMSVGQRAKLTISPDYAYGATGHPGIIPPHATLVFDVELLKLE
Chain of FM (F36M) mutant FKBP12 (P62942 whole entry F37M): as the sequence (P62942 whole entry, added parts left off) above, with F37M counted along it

Molecule: CO[C@H]1C[C@@H]2CC[C@@H](C)[C@@](O)(O2)C(=O)C(=O)N2CCCC[C@H]2C(=O)O[C@H]([C@H](C)C[C@@H]2CC[C@@H](O)[C@H](OC)C2)CC(=O)[C@H](C)/C=C(\C)[C@@H](O)[C@@H](OC)C(=O)[C@H](C)C[C@H](C)/C=C/C=C/C=C/1C [rapamycin]
- toxicity to cells [1]: non-toxic

Molecule: Cc1c(-c2ccc(O)cc2)nn(-c2ccc(O)cc2)c1-c1ccc(OCCN2CCCCC2)cc1 [MPP, methyl piperidinylethoxy pyrazole]
- level of intramolecular-folding-assisted complementation versus carrier control-treated cells [2, 8]: significantly higher

Molecule: 4-hydroxytamoxifen [4-OHT]
- level of intramolecular-folding-assisted complementation versus carrier control-treated cells [2]: significantly higher

Molecule: Nc1nc2c(ncn2CCC(CO)C[18F])c(=O)[nH]1 (stereo not shown) [FHBG, 9-(4-[^18F]-fluoro-3-hydroxymethylbutyl)-guanine]
- probe % ID/g in shoulder tumors ([3]; animals imaged in the prone position): 1.02 % ID/g
- probe % ID/g in shoulder tumors ([3]; animals imaged in the supine position): 0.89 % ID/g
- FHBG accumulation in control tumors ([3]; control implants stably expressing nTK plus cTK only, fifth day, with rapamycin): minimal
- mean % ID/g for FHBG accumulation, background ([3]; mock transfected cells): 0.28±0.10 % ID/g
- mean % ID/g for FHBG accumulation ([3]; tumor of cells transfected with nTK(V119C)-FRB plus FKBP12-cTK, after 5 days of daily rapamycin): 4.37±1.74 % ID/g

Molecule: CCCc1c(-c2ccc(O)cc2)nn(-c2ccc(O)cc2)c1-c1ccc(O)cc1 [PPT, 1,3,5-tris(4-hydroxyphenyl)-4-propyl-1H-pyrazole]
- level of intramolecular-folding-assisted complementation versus carrier control-treated cells [2, 8]: significantly higher

Molecule: CC[C@@H]1/C=C(\C)C[C@H](C)C[C@H](OC)[C@H]2O[C@@](O)(C(=O)C(=O)N3CCCC[C@H]3C(=O)O[C@H](/C(C)=C/[C@@H]3CC[C@@H](O)[C@H](OC)C3)[C@H](C)[C@@H](O)CC1=O)[C@H](C)C[C@@H]2OC [ascomycin]
- effect of increasing concentration on TK complementation [4]: reduction in TK complementation
- smallest concentration required to initiate the competitive inhibition of rapamycin ([4]; 0 to 16 μM): 0.5 µM
- dissociation of complexes (fraction) ([5]; Five μM FK506, within 30 min): about two-thirds
- change of TK activity with increasing doses ([5]; up to 5 μM, after 24 hr of exposure): incremental reduction of TK activity

B1: cTK: C-terminal TK fragment comprising the amino acids Ala-266 to Asn-376 (protein)
chain: AVTPQGAEPQSNAGPRPHIGETLFTLFRAPELLAPNGDLYNVFAWALDVLAKRLRPMHVFILDYDQSPAGCRDALLQLTSGMVQTHVTTPGSIPTICDLARTFAREMGEAH
- TK activity upon single- or co-expression of fragments without attached proteins [6]: no activity

B2: nTK-FRB (other)
chain: MASYPCHQHASAFDQAARSRGHSNRRTALRPRRQQEATEVRLEQKMPTLLRVYIDGPHGMGKTTTTQLLVALGSRDDIVYVPEPMTYWRVLGASETIANIYTTQHRLDQGEISAGDAAVVMTSAQITMGMPYAVTDAVLAPHIGGEAGSSHAPPPALTLIFDRHPIAALLCYPAARYLMGSMTPQAVLAFVALIPPTLPGTNIVLGALPEDRHIDRLAKRQRPGERLDLAMLAAIRRVYGLLANTVRYLQCGGSWREDWGQLSGTGGGGSILWHEMWHEGLEEASRLYFGERNVKGMFEVLEPLHAMMERGPQTLKETSFNQAYGRDLMEAQEWCRKYMKSGNVKDLTQAWDLYYHVFRRISK
- complemented TK activity in the absence of rapamycin, against mock transfection, 293T cells [7]: 2.3 fold above mock transfection levels
- relative gain in complemented TK activity after rapamycin administration, 293T cells [7]: ~3 fold induction
- split TK complementation in SKBr3 human breast cancer cells, with rapamycin [7]: ~3 fold rise
- split TK complementation in SKOV3 human ovarian cancer cells, with rapamycin [7]: ~3 fold rise

B3: nTK: N-terminal TK fragment comprising the amino acids Met-1 to Thr-265 (protein)
chain: MASYPCHQHASAFDQAARSRGHSNRRTALRPRRQQEATEVRLEQKMPTLLRVYIDGPHGMGKTTTTQLLVALGSRDDIVYVPEPMTYWRVLGASETIANIYTTQHRLDQGEISAGDAAVVMTSAQITMGMPYAVTDAVLAPHIGGEAGSSHAPPPALTLIFDRHPIAALLCYPAARYLMGSMTPQAVLAFVALIPPTLPGTNIVLGALPEDRHIDRLAKRQRPGERLDLAMLAAIRRVYGLLANTVRYLQCGGSWREDWGQLSGT
- TK activity upon single- or co-expression of fragments without attached proteins [6]: no activity
